Data: PubChem BioAssay AID2060502 (Molecular Pharmacology Branch, DTP, NCI, 2025)

Test system: 885724-159-R-J1-PDC complex spheroid viability
Experiment: Anticancer human tumor 885724-159-R-J1-PDC patient-derived pancreatic adenocarcinoma cell line growth inhibition [GQUAD]
Settings: for IC50: curve of first compound; for viability, T/C: stronger effect = lower value; active = viability on the fitted dose curve at most 10% of control; inactive = the rest
Procedure, shortened: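 Tumor cells were grown as complex spheroids with HUVEC endothelial cells and mesenchymal stem cells as stroma. G-quadruplex stabilizers were combined with targeted agents over half-log dilutions from near the clinical Cmax, or from 10 microM.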

[1] = second compound 0.0316 µM, first compound 0.0316 µM
[2] = second compound 0.0316 µM, first compound 0.1 µM
[3] = second compound 0.0316 µM, first compound 0.316 µM
[4] = second compound 0.0316 µM, first compound 1 µM
[5] = second compound 0.0316 µM, first compound 3.16 µM
[6] = second compound 0.0316 µM, first compound 10 µM
[7] = second compound 0.1 µM, first compound 0.0316 µM
[8] = second compound 0.1 µM, first compound 0.1 µM
[9] = second compound 0.1 µM, first compound 0.316 µM
[10] = second compound 0.1 µM, first compound 1 µM
[11] = second compound 0.1 µM, first compound 3.16 µM
[12] = second compound 0.1 µM, first compound 10 µM
[13] = second compound 0.316 µM, first compound 0.0316 µM
[14] = second compound 0.316 µM, first compound 0.1 µM
[15] = second compound 0.316 µM, first compound 0.316 µM
[16] = second compound 0.316 µM, first compound 1 µM
[17] = second compound 0.316 µM, first compound 3.16 µM
[18] = second compound 0.316 µM, first compound 10 µM
[19] = second compound 1 µM, first compound 0.0316 µM
[20] = second compound 1 µM, first compound 0.1 µM
[21] = second compound 1 µM, first compound 0.316 µM
[22] = second compound 1 µM, first compound 1 µM
[23] = second compound 1 µM, first compound 3.16 µM
[24] = second compound 1 µM, first compound 10 µM
[25] = second compound 3.16 µM, first compound 0.0316 µM
[26] = second compound 3.16 µM, first compound 0.1 µM
[27] = second compound 3.16 µM, first compound 0.316 µM
[28] = second compound 3.16 µM, first compound 1 µM
[29] = second compound 3.16 µM, first compound 3.16 µM
[30] = second compound 3.16 µM, first compound 10 µM
[31] = second compound 10 µM, first compound 0.0316 µM
[32] = second compound 10 µM, first compound 0.1 µM
[33] = second compound 10 µM, first compound 0.316 µM
[34] = second compound 10 µM, first compound 1 µM
[35] = second compound 10 µM, first compound 3.16 µM
[36] = second compound 10 µM, first compound 10 µM
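Also: spheroids exposed to agents for seven days before readout.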
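For viability, T/C in this document: percent of vehicle control viability where 100% = DMSO wells.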

COc1cccc2c1C(=O)c1c(O)c3c(c(O)c1C2=O)CC(O)(C(=O)CO)CC3OC1CC(N)C(O)C(C)O1 (stereo not drawn) + CN(C)c1ccc(Nc2c3ccc(NC(=O)CCN4CCCC4)cc3nc3cc(NC(=O)CCN4CCCC4)ccc23)cc1
1580 nM: IC50 (second compound 1 µM)
1110 nM: IC50 (second compound 10 µM)
1730 nM: IC50 (second compound 0.316 µM)
2170 nM: IC50 (second compound 0.0316 µM)
inactive: viability, T/C [1] 101% | viability, T/C [2] 96.3% | viability, T/C [3] 96.2% | viability, T/C [4] 73.9% | viability, T/C [5] 38.1% | viability, T/C [7] 89.4% | viability, T/C [8] 95.5% | viability, T/C [9] 81% | viability, T/C [10] 73.6% | viability, T/C [11] 35.4% | viability, T/C [13] 88.6% | viability, T/C [14] 87.8% | viability, T/C [15] 80.7% | viability, T/C [16] 55.3% | viability, T/C [17] 40.5% | viability, T/C [19] 81.1% | viability, T/C [20] 75% | viability, T/C [21] 68.6% | viability, T/C [22] 57% | viability, T/C [23] 39.8% | viability, T/C [25] 83.8% | viability, T/C [26] 71% | viability, T/C [27] 78.7% | viability, T/C [28] 59.2% | viability, T/C [29] 35.1% | viability, T/C [31] 74.2% | viability, T/C [32] 79.7% | viability, T/C [33] 59.1% | viability, T/C [34] 52.5% | viability, T/C [35] 32.7%
1620 nM: IC50 (second compound 3.16 µM)
active: viability, T/C [6] 1.56% | viability, T/C [12] 2.82% | viability, T/C [18] 1.92% | viability, T/C [24] 1.53% | viability, T/C [30] 1.32% | viability, T/C [36] 1.06%
2010 nM: IC50 (second compound 0.1 µM)

Nc1ccn(C2OC(CO)C(O)C2(F)F)c(=O)n1 (stereo not drawn) + CN(C)c1ccc(Nc2c3ccc(NC(=O)CCN4CCCC4)cc3nc3cc(NC(=O)CCN4CCCC4)ccc23)cc1
1830 nM: IC50 (second compound 3.16 µM)
inactive: viability, T/C [1] 79.8% | viability, T/C [2] 90.2% | viability, T/C [3] 71% | viability, T/C [4] 72.9% | viability, T/C [5] 63.8% | viability, T/C [6] 66.3% | viability, T/C [7] 102% | viability, T/C [8] 89.3% | viability, T/C [9] 72.8% | viability, T/C [10] 64.2% | viability, T/C [11] 68.6% | viability, T/C [12] 67% | viability, T/C [13] 89.5% | viability, T/C [14] 77.8% | viability, T/C [15] 74.9% | viability, T/C [16] 56.8% | viability, T/C [17] 74% | viability, T/C [18] 59.8% | viability, T/C [19] 72% | viability, T/C [20] 60.6% | viability, T/C [21] 75% | viability, T/C [22] 51.4% | viability, T/C [23] 65.2% | viability, T/C [24] 50.6% | viability, T/C [25] 76.8% | viability, T/C [26] 64.1% | viability, T/C [27] 60.3% | viability, T/C [28] 47.1% | viability, T/C [29] 52.5% | viability, T/C [30] 44.7% | viability, T/C [31] 72.6% | viability, T/C [32] 63.9% | viability, T/C [33] 47.9% | viability, T/C [34] 61.2% | viability, T/C [35] 52.1% | viability, T/C [36] 52.5%
> 10000 nM: IC50 (second compound 0.0316 µM) | IC50 (second compound 0.1 µM) | IC50 (second compound 0.316 µM) | IC50 (second compound 1 µM) | IC50 (second compound 10 µM)

O=C(NO)c1cnc(N2CCN(S(=O)(=O)c3ccc4ccccc4c3)CC2)nc1 + CN(C)c1ccc(Nc2c3ccc(NC(=O)CCN4CCCC4)cc3nc3cc(NC(=O)CCN4CCCC4)ccc23)cc1
500 nM: IC50 (second compound 1 µM)
579 nM: IC50 (second compound 0.316 µM)
inactive: viability, T/C [1] 91.8% | viability, T/C [2] 117% | viability, T/C [3] 78.7% | viability, T/C [4] 35.9% | viability, T/C [7] 106% | viability, T/C [8] 100% | viability, T/C [9] 86.5% | viability, T/C [10] 34.5% | viability, T/C [13] 83.7% | viability, T/C [14] 91.2% | viability, T/C [15] 75.6% | viability, T/C [16] 26.5% | viability, T/C [19] 80.4% | viability, T/C [20] 68.9% | viability, T/C [21] 64.2% | viability, T/C [22] 29.9% | viability, T/C [25] 71.7% | viability, T/C [26] 64.6% | viability, T/C [27] 76.8% | viability, T/C [28] 22% | viability, T/C [31] 61% | viability, T/C [32] 59% | viability, T/C [33] 43.7% | viability, T/C [34] 26.7%
active: viability, T/C [5] 0.8% | viability, T/C [6] 0.93% | viability, T/C [11] 0.82% | viability, T/C [12] 0.44% | viability, T/C [17] 1.07% | viability, T/C [18] 1.4% | viability, T/C [23] 1.26% | viability, T/C [24] 0.73% | viability, T/C [29] 1.42% | viability, T/C [30] 0.69% | viability, T/C [35] 1.36% | viability, T/C [36] 2.05%
218 nM: IC50 (second compound 10 µM)
683 nM: IC50 (second compound 0.0316 µM)
519 nM: IC50 (second compound 3.16 µM)
702 nM: IC50 (second compound 0.1 µM)

O=c1[nH]cc(F)c(=O)[nH]1 + CN(C)c1ccc(Nc2c3ccc(NC(=O)CCN4CCCC4)cc3nc3cc(NC(=O)CCN4CCCC4)ccc23)cc1
> 10000 nM: IC50 (second compound 0.0316 µM) | IC50 (second compound 0.1 µM) | IC50 (second compound 0.316 µM) | IC50 (second compound 1 µM) | IC50 (second compound 3.16 µM) | IC50 (second compound 10 µM)
inactive: viability, T/C [1] 105% | viability, T/C [2] 103% | viability, T/C [3] 98.7% | viability, T/C [4] 100% | viability, T/C [5] 78% | viability, T/C [6] 85.8% | viability, T/C [7] 90.8% | viability, T/C [8] 103% | viability, T/C [9] 101% | viability, T/C [10] 95.8% | viability, T/C [11] 86.4% | viability, T/C [12] 97.2% | viability, T/C [13] 89% | viability, T/C [14] 88.1% | viability, T/C [15] 87.7% | viability, T/C [16] 79.7% | viability, T/C [17] 86.5% | viability, T/C [18] 78.5% | viability, T/C [19] 91.7% | viability, T/C [20] 69.9% | viability, T/C [21] 80.5% | viability, T/C [22] 73.3% | viability, T/C [23] 76.3% | viability, T/C [24] 83.2% | viability, T/C [25] 82.7% | viability, T/C [26] 83.5% | viability, T/C [27] 87.8% | viability, T/C [28] 80.6% | viability, T/C [29] 71.4% | viability, T/C [30] 75.5% | viability, T/C [31] 76% | viability, T/C [32] 80% | viability, T/C [33] 80.6% | viability, T/C [34] 79% | viability, T/C [35] 87.8% | viability, T/C [36] 75%
